The numbers were not newly measured in US5045530A, “Pharmaceutical preparations” (priority 1986, dated 1991), which cites them from elsewhere.

For the data set the following is noted: in vivo; cited from earlier work.

Take polymyxin B: the plasma half life was 4.5 h.
